# Data reported in patent US20180228795A1, “COMBINATION THERAPY FOR CANCER” (Eli Lilly and Company, priority 2015, published 2018).
# Key:
# Assay in all cases: Antitumor effects in PDX mouse model of TNBC
# Format in all cases: in vivo
# PDX TNBC Model ST518 = conditions: A 10 mg/kg SC BID 3 days on/4 off ×4, B 7.5 mg/kg PO BID×28, versus vehicle
# Description: (§1) Establish PDX tumor models from viable human tumor tissue and serially passage in immunocompromised female mice a limited number of times. Using tumor fragments harvested from donor host animals, perform unilateral subcutaneous implants from a specific passage of the PDX tumor model on the flanks of the experimental animals. When tumor volumes reach approximately 150-250 mm^3 in size, randomize the animals by treatment arm by randomization techniques well known in the art and place into their respective treatment groups using 1 animal per treatment group (3 animals in an untreated group). Formulate CHK1 inhibitor, 5-(5-(2-(3-aminopropoxy)-6-methoxyphenyl)-1H-pyrazol-3-ylamino)pyrazine-2-carbonitrile methanesulfonate hydrate, (Compound A) every 14 days in 20% captisol (dissolved in water) and administer subcutaneously twice daily at a dose of 10 mg/kg on days 1/2/3 of a weekly cycle for 4 weeks (SC, BID [3 days on/4 off]×4). Formulate the PI3K/mTOR dual inhibitor, 8-[5-(1-hydroxy-1-methylethyl)pyridin-3-yl]-1-[(2S)-2-methoxypropyl]-3-methyl-1,3-dihydro-2H-imidazo[4,5-c]quinolin-2-one, (Compound B) weekly in 1% (HEC)/0.25% Tween 80 (Polysorbate 80)/0.05% Dow-Corning Antifoam 1510-US and administer by oral gavage twice-daily for 28 days (PO, BID×28) at a dose of 7.5 mg/kg. Dose combination treatment animals with both compounds according to the schedule described above for monotherapy, and dose vehicle treatment animals with vehicle according to the schedule for Compound B.
# (§2) Test the combination of Compound A and Compound B, as well as their respective monotherapies, in 40 PDX models (Table 1) of TNBC. Assess antitumor efficacy of the treatment groups by measuring tumor volume via caliper measurements twice a week during the course of the study. Measure body weight twice weekly during the course of the study as a general indicator of tolerability.
# (§3) Capture tumor size and body weight twice per week. Estimate tumor volume (V) by using the formula: V=(π/6)×L×W^2 where L=larger of measured diameter and W=smaller perpendicular diameter. Calculate relative tumor volume using the tumor volume measurement taken nearest to the last day of dosing for each animal (T), divided by the baseline tumor volume for that animal (T0), which is the volume recorded on or just prior to the first day of dosing, Y=T/T0. Calculate % ΔT/ΔC values using the formula % ΔT/ΔC=100(YT−1)/(YC−1), whereby YT or YC=geometric mean relative volume of the compound treated group or the control group, respectively. Tumor growth inhibition is observed in those instances where the calculated values for % ΔT/ΔC are less than 100% whereby greater inhibition results in smaller % ΔT/ΔC values. If ΔT<0, then a tumor regression value is calculated instead of % ΔT/ΔC whereby % Regression=100(YT−1). Note that negative values indicate regression. We collectively refer to % ΔT/ΔC and % Regression as % Response.
# (§4) Examine relative tumor volume (final volume divided by baseline volume) on the last day of treatment or the last day on which data from all three treatment groups and vehicle is available, if it is earlier than the last day of treatment and at least 14 days after baseline. Expected additive relative volume is determined using the Bliss method (Bliss, C. I., Ann Appl Biol, 1939; 26(3):585-615). Specifically, denoting Y=relative volume, YExp=(Y1*Y2)/YV, where YExp=expected additive relative volume, Y1 and Y2 are the relative volumes in the single agent groups (Compound A and Compound B), and YV is the relative volume in the vehicle group. A range of additivity is defined around the expected additive relative volume via upper and lower limits as follows:
# (§5) Yupper=max(2*YExp,YExp+0.2)
# (§6) Ylower=min(YExp/2,YExp−0.2)
# (§7) The upper limit of the range is the larger of 2-fold above or 20% above the expected additive relative volume, and the lower limit is the smaller of 2-fold below or 20% below the expected additive relative volume. […]
# PDX TNBC Model MAXF 574 = conditions: PDX model MAXF 574; A 10 mg/kg SC BID 3 days on/4 off ×4; B 7.5 mg/kg PO BID×28; versus vehicle
# Description: as §1, §2, §3, §4, §5, §6, §7
# PDX TNBC Model CTG-1151 = conditions: PDX model CTG-1151; A 10 mg/kg SC BID 3 days on/4 off ×4; B 7.5 mg/kg PO BID×28; versus vehicle
# Description: as §1, §2, §3, §4, §5, §6, §7
# PDX TNBC Model CTG-0888 = conditions: PDX model CTG-0888; A 10 mg/kg SC BID 3 days on/4 off ×4; B 7.5 mg/kg PO BID×28; versus vehicle
# Description: as §1, §2, §3, §4, §5, §6, §7
# PDX TNBC Model ST231 = conditions: A 10 mg/kg SC BID 3 days on/4 off ×4, B 7.5 mg/kg PO BID×28, versus vehicle
# Description: as §1, §2, §3, §4, §5, §6, §7
# PDX TNBC Model CTG-1167 = conditions: PDX model CTG-1167; A 10 mg/kg SC BID 3 days on/4 off ×4; B 7.5 mg/kg PO BID×28; versus vehicle
# Description: as §1, §2, §3, §4, §5, §6, §7
# PDX TNBC Model ST821 = conditions: A 10 mg/kg SC BID 3 days on/4 off ×4, B 7.5 mg/kg PO BID×28, versus vehicle
# Description: as §1, §2, §3, §4, §5, §6, §7
# PDX TNBC Model CTG-0018 = conditions: PDX model CTG-0018; A 10 mg/kg SC BID 3 days on/4 off ×4; B 7.5 mg/kg PO BID×28; versus vehicle
# Description: as §1, §2, §3, §4, §5, §6, §7
# PDX TNBC Model CTG-0052 = conditions: PDX model CTG-0052; A 10 mg/kg SC BID 3 days on/4 off ×4; B 7.5 mg/kg PO BID×28; versus vehicle
# Description: as §1, §2, §3, §4, §5, §6, §7
# PDX TNBC Model CTG-1019 = conditions: PDX model CTG-1019; A 10 mg/kg SC BID 3 days on/4 off ×4; B 7.5 mg/kg PO BID×28; versus vehicle
# Description: as §1, §2, §3, §4, §5, §6, §7
# PDX TNBC Model CTG-1242 = conditions: PDX model CTG-1242; A 10 mg/kg SC BID 3 days on/4 off ×4; B 7.5 mg/kg PO BID×28; versus vehicle
# Description: as §1, §2, §3, §4, §5, §6, §7
# PDX TNBC Model ST430 = conditions: A 10 mg/kg SC BID 3 days on/4 off ×4, B 7.5 mg/kg PO BID×28, versus vehicle
# Description: as §1, §2, §3, §4, §5, §6, §7
# PDX TNBC Model CTG-0869 = conditions: PDX model CTG-0869; A 10 mg/kg SC BID 3 days on/4 off ×4; B 7.5 mg/kg PO BID×28; versus vehicle
# Description: as §1, §2, §3, §4, §5, §6, §7
Compound,% Rsp. (% ΔT/ΔC or % Regression) (PDX TNBC Model ST518),% Rsp. (% ΔT/ΔC or % Regression) (PDX TNBC Model MAXF 574),% Rsp. (% ΔT/ΔC or % Regression) (PDX TNBC Model CTG-1151),% Rsp. (% ΔT/ΔC or % Regression) (PDX TNBC Model CTG-0888),% Rsp. (% ΔT/ΔC or % Regression) (PDX TNBC Model ST231),% Rsp. (% ΔT/ΔC or % Regression) (PDX TNBC Model CTG-1167),% Rsp. (% ΔT/ΔC or % Regression) (PDX TNBC Model ST821),% Rsp. (% ΔT/ΔC or % Regression) (PDX TNBC Model CTG-0018),% Rsp. (% ΔT/ΔC or % Regression) (PDX TNBC Model CTG-0052),% Rsp. (% ΔT/ΔC or % Regression) (PDX TNBC Model CTG-1019),% Rsp. (% ΔT/ΔC or % Regression) (PDX TNBC Model CTG-1242),% Rsp. (% ΔT/ΔC or % Regression) (PDX TNBC Model ST430),% Rsp. (% ΔT/ΔC or % Regression) (PDX TNBC Model CTG-0869)
"COc1cccc(OCCCN)c1-c1cc(Nc2cnc(C#N)cn2)n[nH]1.CS(=O)(=O)O [Compound A, 5-(5-(2-(3-aminopropoxy)-6-methoxyphenyl)-1H-pyrazol-3-ylamino)pyrazine-2-carbonitrile methanesulfonate hydrate]",−23.4%,22.9%,−84.6%,15.0%,−74.6%,62.3%,−81.9%,−57.6%,41.3%,86.6%,66.8%,80.9%,52.6%
"CO[C@@H](C)Cn1c(=O)n(C)c2cnc3ccc(-c4cncc(C(C)(C)O)c4)cc3c21 [Compound B, 8-[5-(1-hydroxy-1-methylethyl)pyridin-3-yl]-1-[(2S)-2-methoxypropyl]-3-methyl-1,3-dihydro-2H-imidazo[4,5-c]quinolin-2-one]",66.5%,59.4%,92.5%,21.2%,76.8%,65.8%,78.5%,86.0%,8.6%,158.0%,107.3%,59.2%,64.9%
